# According to US9493430B2, “Biaryl- or heterocyclic biaryl-substituted cyclohexene derivative compounds as CETP inhibitors” (CHONG KUN DANG PHARMACEUTICAL CORP., priority 2013, dated 2016):
# Molecular target: CETP (Homo sapiens (Human), UniProt P11597)
# Assay: Test for inhibition of cholesteryl ester transfer (in vitro)
# Type: biochemical
# Settings: human plasma as CETP source, LDL from healthy persons as acceptor, rHDL-agarose donor, 37° C.
# Description: Test for Inhibition of Cholesteryl Ester Transfer (In Vitro)
# 1. Construction of Cholesteryl Ester Donor
# To construct a cholesteryl ester donor to be used in the test, radiolabeled recombinant HDL containing […] (GE healthcare, TRK886, 3.5 μCi/mg of apoA-1) and apoA-1 was synthesized. Then, rHDL-agarose having the recombinant HDL immobilized thereon by CNBr-activated Sepharose 4B (Amersham Biosciences, Sweden) resin was used in the test.
# 2. Cholesteryl Ester Transfer Test
# As a protein source for cholesteryl ester transfer, plasma from healthy persons was used, and as a cholesteryl ester receptor, LDL from healthy persons was used. Samples were treated with each test compound to final concentrations of 16, 80, 400, 2000 and 10000 nM and analyzed in duplicate. For the cholesteryl ester transfer test, 20 μl of plasma, 50 μl of LDL (0.25 mg/ml) and 50 μl of rHDL-agarose (0.25 mg/ml) were added, and a solution containing a test compound was added, followed by reaction at 37° C. Then, centrifugation was performed at 4° C. for 3 minutes to stop the reaction, and 150 μl of the supernatant was taken and transferred to a 96-well plate for radioactivity measurement, and the radioactivity of the plate was measured with a beta-ray detector.
# 3. Statistical Processing
# The ratio of [^3H]-cholesteryl oleate from HDL to LDL was calculated and used as a result value, and from the result value, IC50 value was calculated using GraphPad Prism 5.0.
# CETP, sequence (P11597 18-493): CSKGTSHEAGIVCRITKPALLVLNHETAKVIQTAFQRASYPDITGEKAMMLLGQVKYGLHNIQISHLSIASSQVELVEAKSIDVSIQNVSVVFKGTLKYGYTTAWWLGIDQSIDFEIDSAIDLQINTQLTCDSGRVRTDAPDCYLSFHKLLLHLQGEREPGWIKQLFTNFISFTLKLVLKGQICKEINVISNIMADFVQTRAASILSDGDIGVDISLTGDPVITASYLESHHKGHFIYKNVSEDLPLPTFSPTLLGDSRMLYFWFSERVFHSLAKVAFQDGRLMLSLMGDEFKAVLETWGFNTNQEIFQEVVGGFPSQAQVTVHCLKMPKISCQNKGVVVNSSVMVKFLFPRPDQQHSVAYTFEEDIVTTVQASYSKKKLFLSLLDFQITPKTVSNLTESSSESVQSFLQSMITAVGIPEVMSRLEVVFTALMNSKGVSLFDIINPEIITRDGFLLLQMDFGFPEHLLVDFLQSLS
row,Structure (SMILES),IC50
1,"COC(=O)c1ccc(-c2cnc(OC)c(C3=C(CN4C(=O)O[C@H](c5cc(C(F)(F)F)cc(C(F)(F)F)c5)[C@@H]4C)CC(C)(C)CC3)c2)c(C)c1 [Compound 555, methyl 4-(3-(2-(((4S,5R)-5-(3,5-bis(trifluoromethyl)phenyl)-4-methyl-2-oxooxazolidin-3-yl)methyl)-4,4-dimethylcyclohex-1-enyl)-2-methoxypyridin-5-yl)-3-methylbenzoate]",28.4 nM
2,"COc1ccc(-c2ccc(C(=O)O)cc2F)cc1C1=C(CN2C(=O)O[C@H](c3cc(C(F)(F)F)cc(C(F)(F)F)c3)[C@@H]2C)CC(C)(C)CC1 [Compound 561, 3′-(2-(((4S,5R)-5-(3,5-bis(trifluoromethyl)phenyl)-4-methyl-2-oxooxazolidin-3-yl)methyl)-4,4-dimethylcyclohex-1-enyl)-2-fluoro-4′-methoxybiphenyl-4-carboxylic acid]",23.2 nM
3,"COC(=O)c1cccc(-c2ccc(OC)c(C3=C(CN4C(=O)O[C@H](c5cc(C(F)(F)F)cc(C(F)(F)F)c5)[C@@H]4C)CC(C)(C)CC3)c2)c1 [Compound 567, methyl 3′-(2-(((4S,5R)-5-(3,5-bis(trifluoromethyl)phenyl)-4-methyl-2-oxooxazolidin-3-yl)methyl)-4,4-dimethylcyclohex-1-enyl)-4′-methoxybiphenyl-3-carboxylate]",56.6 nM
4,"COC(=O)c1ccc(-c2cc(C3=C(CN4C(=O)O[C@H](c5cc(C(F)(F)F)cc(C(F)(F)F)c5)[C@@H]4C)CC(C)(C)CC3)c(OC)cc2F)c(C)c1 [Compound 572, methyl 5′-(2-(((4S,5R)-5-(3,5-bis(trifluoromethyl)phenyl)-4-methyl-2-oxooxazolidin-3-yl)methyl)-4,4-dimethylcyclohex-1-enyl)-2′-fluoro-4′-methoxy-2-methylbiphenyl-4-carboxylate]",15 nM
5,"COc1cc(F)c(-c2ccc(C(=O)O)cc2)cc1C1=C(CN2C(=O)O[C@H](c3cc(C(F)(F)F)cc(C(F)(F)F)c3)[C@@H]2C)CC(C)(C)CC1 [Compound 575, 5′-(2-(((4S,5R)-5-(3,5-bis(trifluoromethyl)phenyl)-4-methyl-2-oxooxazolidin-3-yl)methyl)-4,4-dimethylcyclohex-1-enyl)-2′-fluoro-4′-methoxybiphenyl-4-carboxylic acid]",14.6 nM
6,"COc1ncc(-c2ccc(C(=O)O)cc2C(C)C)cc1C1=C(CN2C(=O)O[C@H](c3cc(C(F)(F)F)cc(C(F)(F)F)c3)[C@@H]2C)CC(C)(C)CC1 [Compound 578, 4-(3-(2-(((4S,5R)-5-(3,5-bis(trifluoromethyl)phenyl)-4-methyl-2-oxooxazolidin-3-yl)methyl)-4,4-dimethylcyclohex-1-enyl)-2-methoxypyridin-5-yl)-3-isopropylbenzoic acid]",12.6 nM
7,"COc1ncc(-c2ccc(C(=O)O)c(F)c2F)cc1C1=C(CN2C(=O)O[C@H](c3cc(C(F)(F)F)cc(C(F)(F)F)c3)[C@@H]2C)CC(C)(C)CC1 [Compound 596, 4-(3-(2-(((4S,5R)-5-(3,5-bis(trifluoromethyl)phenyl)-4-methyl-2-oxooxazolidin-3-yl)methyl)-4,4-dimethylcyclohex-1-enyl)-2-methoxypyridin-5-yl)-2,3-difluorobenzoic acid]",17.9 nM
8,"COc1ccc(-c2ccc(C(=O)O)cc2OC)cc1C1=C(CN2C(=O)O[C@H](c3cc(C(F)(F)F)cc(C(F)(F)F)c3)[C@@H]2C)CC(C)(C)CC1 [Compound 597, 3′-(2-(((4S,5R)-5-(3,5-bis(trifluoromethyl)phenyl)-4-methyl-2-oxooxazolidin-3-yl)methyl)-4,4-dimethylcyclohex-1-enyl)-2,4′-dimethoxybiphenyl-4-carboxylic acid]",50.2 nM
9,"COc1cc(C(F)(F)F)c(-c2ccc(C(=O)O)c(F)c2)cc1C1=C(CN2C(=O)O[C@H](c3cc(C(F)(F)F)cc(C(F)(F)F)c3)[C@@H]2C)CC(C)(C)CC1 [Compound 614, 5′-(2-(((4S,5R)-5-(3,5-bis(trifluoromethyl)phenyl)-4-methyl-2-oxooxazolidin-3-yl)methyl)-4,4-dimethylcyclohex-1-enyl)-3-fluoro-4′-methoxy-2′-(trifluoromethyl)biphenyl-4-carboxylic acid]",27 nM
10,"COc1cc(C)c(-c2ccc(C(=O)O)cc2)cc1C1=C(CN2C(=O)O[C@H](c3cc(C(F)(F)F)cc(C(F)(F)F)c3)[C@@H]2C)CC(C)(C)CC1 [Compound 620, 5′-(2-(((4S,5R)-5-(3,5-bis(trifluoromethyl)phenyl)-4-methyl-2-oxooxazolidin-3-yl)methyl)-4,4-dimethylcyclohex-1-enyl)-4′-methoxy-2′-methylbiphenyl-4-carboxylic acid]",11.6 nM
11,"Cc1cc(C(=O)O)ccc1-c1cc(C2=C(CN3C(=O)O[C@H](c4cc(C(F)(F)F)cc(C(F)(F)F)c4)[C@@H]3C)CC(C)(C)CC2)ccc1C [Compound 677, 5′-(2-(((4S,5R)-5-(3,5-bis(trifluoromethyl)phenyl)-4-methyl-2-oxooxazolidin-3-yl)methyl)-4,4-dimethylcyclohex-1-enyl)-2,2′-dimethylbiphenyl-4-carboxylic acid]",15.9 nM
12,"COc1cc(C2=C(CN3C(=O)O[C@H](c4cc(C(F)(F)F)cc(C(F)(F)F)c4)[C@@H]3C)CC(C)(C)CC2)cc(-c2ccc(C(=O)O)cc2C)c1 [Compound 689, 3′-(2-(((4S,5R)-5-(3,5-bis(trifluoromethyl)phenyl)-4-methyl-2-oxooxazolidin-3-yl)methyl)-4,4-dimethylcyclohex-1-enyl)-5′-methoxy-2-methylbiphenyl-4-carboxylic acid]",24.3 nM
13,"Cc1cc(C(=O)O)ccc1-c1ccc(Cl)c(C2=C(CN3C(=O)O[C@H](c4cc(C(F)(F)F)cc(C(F)(F)F)c4)[C@@H]3C)CC(C)(C)CC2)c1 [Compound 727, 3′-(2-(((4S,5R)-5-(3,5-bis(trifluoromethyl)phenyl)-4-methyl-2-oxooxazolidin-3-yl)methyl)-4,4-dimethylcyclohex-1-enyl)-4′-chloro-2-methylbiphenyl-4-carboxylic acid]",11.4 nM

# The next compounds have a lower IC50 than those just listed; values first:
row,IC50,Structure (SMILES)
1,10.7 nM,"Cc1cc(C(=O)O)ccc1-c1cccc(C2=C(CN3C(=O)O[C@H](c4cc(C(F)(F)F)cc(C(F)(F)F)c4)[C@@H]3C)CC(C)(C)CC2)c1 [Compound 651, 3′-(2-(((4S,5R)-5-(3,5-bis(trifluoromethyl)phenyl)-4-methyl-2-oxooxazolidin-3-yl)methyl)-4,4-dimethylcyclohex-1-enyl)-2-methylbiphenyl-4-carboxylic acid]"
2,9.6 nM,"C[C@H]1[C@@H](c2cc(C(F)(F)F)cc(C(F)(F)F)c2)OC(=O)N1CC1=C(c2ccc(F)c(-c3ccc(C(=O)O)cc3C(F)(F)F)c2)CCC(C)(C)C1 [Compound 723, 5′-(2-(((4S,5R)-5-(3,5-bis(trifluoromethyl)phenyl)-4-methyl-2-oxooxazolidin-3-yl)methyl)-4,4-dimethylcyclohex-1-enyl)-2′-fluoro-2-(trifluoromethyl)biphenyl-4-carboxylic acid]"
3,8.4 nM,"COc1ccc(-c2ccc(C(=O)O)c(F)c2F)cc1C1=C(CN2C(=O)O[C@H](c3cc(C(F)(F)F)cc(C(F)(F)F)c3)[C@@H]2C)CC(C)(C)CC1 [Compound 592, 3′-(2-(((4S,5R)-5-(3,5-bis(trifluoromethyl)phenyl)-4-methyl-2-oxooxazolidin-3-yl)methyl)-4,4-dimethylcyclohex-1-enyl)-2,3-difluoro-4′-methoxybiphenyl-4-carboxylic acid]"
4,7.6 nM,"COc1cc(C(F)(F)F)c(-c2ccc(C(=O)O)cc2C)cc1C1=C(CN2C(=O)O[C@H](c3cc(C(F)(F)F)cc(C(F)(F)F)c3)[C@@H]2C)CC(C)(C)CC1 [Compound 616, 5′-(2-(((4S,5R)-5-(3,5-bis(trifluoromethyl)phenyl)-4-methyl-2-oxooxazolidin-3-yl)methyl)-4,4-dimethylcyclohex-1-enyl)-4′-methoxy-2-methyl-2′-(trifluoromethyl)biphenyl-4-carboxylic acid]"
5,7.5 nM,"C[C@H]1[C@@H](c2cc(C(F)(F)F)cc(C(F)(F)F)c2)OC(=O)N1CC1=C(c2cc(-c3ccc(C(=O)O)cc3C(F)(F)F)ccc2Cl)CCC(C)(C)C1 [Compound 729, 3′-(2-(((4S,5R)-5-(3,5-bis(trifluoromethyl)phenyl)-4-methyl-2-oxooxazolidin-3-yl)methyl)-4,4-dimethylcyclohex-1-enyl)-4′-chloro-2-(trifluoromethyl)biphenyl-4-carboxylic acid]"
6,6.9 nM,"COc1cc(C(F)(F)F)c(-c2ccc(C(=O)O)cc2)cc1C1=C(CN2C(=O)O[C@H](c3cc(C(F)(F)F)cc(C(F)(F)F)c3)[C@@H]2C)CC(C)(C)CC1 [Compound 612, 5′-(2-(((4S,5R)-5-(3,5-bis(trifluoromethyl)phenyl)-4-methyl-2-oxooxazolidin-3-yl)methyl)-4,4-dimethylcyclohex-1-enyl)-4′-methoxy-2′-(trifluoromethyl)biphenyl-4-carboxylic acid]"
7,1.9 nM,"COc1cc(C)c(-c2ccc(C(=O)O)cc2C)cc1C1=C(CN2C(=O)O[C@H](c3cc(C(F)(F)F)cc(C(F)(F)F)c3)[C@@H]2C)CC(C)(C)CC1 [Compound 684, 5′-(2-(((4S,5R)-5-(3,5-bis(trifluoromethyl)phenyl)-4-methyl-2-oxooxazolidin-3-yl)methyl)-4,4-dimethylcyclohex-1-enyl)-4′-methoxy-2,2′-dimethylbiphenyl-4-carboxylic acid]"
